# Data taken from ChEMBL document CHEMBL4011633, “Donepezil-Based Central Acetylcholinesterase Inhibitors by Means of a "Bio-Oxidizable" Prodrug Strategy: Design, Synthesis, and in Vitro Biological Evaluation” (J Med Chem, 2017).
# Activity calls are given as the source filed them. The rule behind the calls is not given here.
# What was measured:
# [1] = Selectivity index, ratio of IC50 for equine serum BChE to IC50 for AChE in human erythrocytes; format: cell-based
# Acetylcholinesterase [2] = target: T1, Acetylcholinesterase (Homo sapiens, UniProt P22303); assay: Inhibition of AChE in human erythrocytes using acetylthiocholine iodide as substrate preincubated for 5 mins followed by substrate addition measured every minute for 10 mins by Ellman's spectrophotometric method; format: cell-based
# T1 sequence (P22303 whole entry): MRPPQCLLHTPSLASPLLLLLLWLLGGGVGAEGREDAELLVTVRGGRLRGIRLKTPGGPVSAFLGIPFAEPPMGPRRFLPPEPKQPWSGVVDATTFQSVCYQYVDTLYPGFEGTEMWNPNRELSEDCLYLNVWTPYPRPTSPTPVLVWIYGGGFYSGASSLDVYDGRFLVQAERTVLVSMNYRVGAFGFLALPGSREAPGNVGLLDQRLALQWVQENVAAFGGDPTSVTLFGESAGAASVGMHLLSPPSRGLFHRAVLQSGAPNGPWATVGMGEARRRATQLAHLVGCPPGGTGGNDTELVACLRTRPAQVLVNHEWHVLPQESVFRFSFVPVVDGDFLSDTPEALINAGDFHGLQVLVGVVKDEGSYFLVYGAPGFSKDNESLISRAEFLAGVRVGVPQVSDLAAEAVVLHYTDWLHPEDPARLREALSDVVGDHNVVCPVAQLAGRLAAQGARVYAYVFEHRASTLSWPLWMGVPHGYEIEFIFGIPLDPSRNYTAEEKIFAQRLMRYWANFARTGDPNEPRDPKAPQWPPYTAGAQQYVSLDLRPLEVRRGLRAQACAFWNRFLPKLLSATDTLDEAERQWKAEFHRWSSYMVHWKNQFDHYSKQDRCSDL
# Cholinesterase = Cholinesterase (Equus caballus, UniProt P81908)
# Sequence of Cholinesterase (P81908 whole entry): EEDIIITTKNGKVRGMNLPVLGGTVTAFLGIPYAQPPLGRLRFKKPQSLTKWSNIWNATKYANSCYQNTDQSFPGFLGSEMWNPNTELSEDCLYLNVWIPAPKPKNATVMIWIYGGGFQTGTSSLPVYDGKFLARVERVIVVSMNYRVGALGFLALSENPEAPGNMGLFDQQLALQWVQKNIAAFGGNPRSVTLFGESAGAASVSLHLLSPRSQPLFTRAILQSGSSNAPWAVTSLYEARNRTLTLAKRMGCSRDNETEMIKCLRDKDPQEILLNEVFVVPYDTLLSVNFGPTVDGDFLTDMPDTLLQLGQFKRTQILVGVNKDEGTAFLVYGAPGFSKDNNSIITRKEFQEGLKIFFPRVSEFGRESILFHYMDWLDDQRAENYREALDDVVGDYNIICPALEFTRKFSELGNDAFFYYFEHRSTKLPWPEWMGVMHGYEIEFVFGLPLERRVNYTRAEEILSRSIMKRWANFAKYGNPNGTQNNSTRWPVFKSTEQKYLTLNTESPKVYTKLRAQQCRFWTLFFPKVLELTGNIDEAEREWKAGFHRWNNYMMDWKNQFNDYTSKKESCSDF
# Description: Inhibition of equine serum BChE using butyrylthiocholine iodide as substrate preincubated for 5 mins followed by substrate addition measured every minute for 10 mins by Ellman's spectrophotometric method
# [3] = Effective permeability of compound at pH 7.4 at 100 uM after 4 hrs by PAMPA; format: physicochemical; conditions: read-out: Peff
# Acetylcholinesterase [4] = target: T1, Acetylcholinesterase; assay: Inhibition of AChE (unknown origin)
# [5] = Antioxidant activity assessed as DPPH free radical scavenging after 40 mins incubation in dark; format: functional
# [6] = Toxicity in ip dosed CD1 mouse assessed as mortality administered as qd after 48 hrs; format: organism-based; conditions: in vivo
# Mus musculus [7] = assay: Toxicity in CD1 mouse brain at 10 mg/kg, ip qd administered daily for 14 days by macroscopic method; format: organism-based; conditions: in vivo, 336 h
# Mus musculus [8] = assay: Toxicity in CD1 mouse heart at 10 mg/kg, ip qd administered daily for 14 days by macroscopic method; format: organism-based; conditions: in vivo, 336 h
# [9] = (§1) Prodrug activation in pH 7.4 PBS buffer at 25 uM assessed as (+/-)-1-[(3-Chlorophenyl)methyl]-4-[(5,6-dimethoxy-1-oxo-indan-2-yl)methyl]pyridin-1-ium-3-carboxamide Bromide formation after 180 mins in the presence of (+/-)-1-[(3-Chlorophenyl)methyl]-4-[(5,6-dimethoxy-1-oxo-indan-2-yl)methyl]pyridin-1-ium-3-carboxamide Bromide
# [10] = as §1, with “10% methanolic silver nitrate” for “pH 7.4 PBS buffer”
# [11] = as §1, with “2%” for “pH 7.4”, “riboflavin” for “buffer”
# [12] = as §1, with “0.1%” for “pH 7.4”, “NAD+ riboflavin” for “buffer”
# [13] = as §1, with “2%” for “pH 7.4”, “NAD+ riboflavin” for “buffer”
# Salmonella typhimurium [14] = assay: Genotoxicity in Salmonella typhimurium TA98 after 90 mins by Ames test; format: toxicity; conditions: salmonella enterica subsp. enterica serovar typhimurium, 1.5 h
# Salmonella typhimurium [15] = assay: Genotoxicity in Salmonella typhimurium TAMix after 90 mins by Ames test; format: toxicity; conditions: salmonella enterica subsp. enterica serovar typhimurium, 1.5 h
# Mus musculus [16] = assay: Toxicity in CD1 mouse assessed as mortality at 10 mg/kg, ip qd administered daily for 14 days; format: organism-based; conditions: in vivo, 336 h
# Mus musculus [17] = assay: Toxicity in CD1 mouse brain at 10 mg/kg, ip qd administered daily for 14 days by microscopic method; format: organism-based; conditions: in vivo, 336 h
# Mus musculus [18] = assay: Toxicity in CD1 mouse heart at 10 mg/kg, ip qd administered daily for 14 days by microscopic method; format: organism-based; conditions: in vivo, 336 h
# Mus musculus [19] = assay: Toxicity in CD1 mouse kidney at 10 mg/kg, ip qd administered daily for 14 days by microscopic method; format: organism-based; conditions: in vivo, 336 h
# Mus musculus [20] = assay: Toxicity in CD1 mouse liver at 10 mg/kg, ip qd administered daily for 14 days by microscopic method; format: organism-based; conditions: in vivo, 336 h
# Mus musculus [21] = assay: Toxicity in CD1 mouse assessed as change in spleen texture at 10 mg/kg, ip qd administered for 14 days by microscopic method; format: organism-based; conditions: in vivo, 336 h
# Brain [22] = assay: Prodrug activation in CD1 mouse brain at 10 mg/kg, ip qd administered daily for 14 days by LC-MS/MS analysis; format: organism-based; conditions: in vivo, 336 h
# Brain [23] = assay: Prodrug activation in CD1 mouse brain at 10 mg/kg, ip qd after 24 hrs by LC-MS/MS analysis; format: organism-based; conditions: in vivo
# Mus musculus [24] = assay: Toxicity in CD1 mouse kidney at 10 mg/kg, ip qd administered daily for 14 days by macroscopic method; format: organism-based; conditions: in vivo, 336 h
# Mus musculus [25] = assay: Toxicity in CD1 mouse liver at 10 mg/kg, ip qd administered daily for 14 days by macroscopic method; format: organism-based; conditions: in vivo, 336 h
# Mus musculus [26] = assay: Toxicity in CD1 mouse assessed as change in spleen texture at 10 mg/kg, ip qd administered for 14 days by macroscopic method; format: organism-based; conditions: in vivo, 336 h
# [27] = Prodrug activation in CD3OD solution assessed as (+/-)-1-[(3-Chlorophenyl)methyl]-4-[(5,6-dimethoxy-1-oxo-indan-2-yl)methyl]pyridin-1-ium-3-carboxamide Bromide formation at 10 mM after 4 to 10 mins in presence of DPPH radical solution by 1H NMR analysis
# Acetylcholinesterase [28] = target: T1, Acetylcholinesterase; assay: Inhibition of human recombinant AChE-induced human amyloid beta (1 to 40 residues) aggregation at 100 uM after 24 hrs by thioflavine T fluorescence method
# [29] = target: Amyloid-beta precursor protein (Homo sapiens) (UniProt P05067); assay: Inhibition of amyloid beta (1 to 42 residues) (unknown origin) self-aggregation at 10 uM measured every 5 mins by ThT-fluorescence assay
# Sequence of Amyloid-beta precursor protein (Homo sapiens) (P05067 whole entry, the tested form may be a part): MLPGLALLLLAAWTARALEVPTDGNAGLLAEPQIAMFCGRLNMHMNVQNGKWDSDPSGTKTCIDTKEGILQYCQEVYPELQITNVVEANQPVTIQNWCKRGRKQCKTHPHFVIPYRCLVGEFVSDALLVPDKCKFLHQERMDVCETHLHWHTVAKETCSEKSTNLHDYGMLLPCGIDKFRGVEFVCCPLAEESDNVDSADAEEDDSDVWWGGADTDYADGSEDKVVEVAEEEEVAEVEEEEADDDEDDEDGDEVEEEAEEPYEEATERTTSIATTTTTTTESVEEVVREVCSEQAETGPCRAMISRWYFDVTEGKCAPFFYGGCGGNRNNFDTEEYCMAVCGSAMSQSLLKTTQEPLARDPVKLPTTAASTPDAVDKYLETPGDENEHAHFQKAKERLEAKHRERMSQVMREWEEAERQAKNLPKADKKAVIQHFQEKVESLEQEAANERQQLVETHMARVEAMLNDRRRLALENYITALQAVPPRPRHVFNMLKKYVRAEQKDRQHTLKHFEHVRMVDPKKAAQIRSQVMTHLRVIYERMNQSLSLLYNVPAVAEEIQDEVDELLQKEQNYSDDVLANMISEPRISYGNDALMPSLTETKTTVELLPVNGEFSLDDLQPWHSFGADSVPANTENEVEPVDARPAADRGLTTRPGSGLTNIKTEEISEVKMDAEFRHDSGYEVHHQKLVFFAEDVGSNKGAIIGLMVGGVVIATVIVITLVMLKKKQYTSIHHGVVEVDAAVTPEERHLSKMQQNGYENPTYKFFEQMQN
# SH-SY5Y = assay: Cytotoxicity against human SH-SY5Y cells assessed as […] in cell viability at 0.1 to 1 mM after 24 hrs by fluorescence assay; format: cell-based; conditions: 1000 µM
smiles,measurement,setting,value
CC(=O)c1c[n+](Cc2ccccc2C)ccc1CC1Cc2cc3c(cc2C1=O)OCO3 (racemic),Ratio IC50,[1],26.9
CC(=O)c1c[n+](Cc2ccccc2C)ccc1CC1Cc2cc(C)ccc2C1=O (racemic),IC50,Acetylcholinesterase [2],0.091 µM
same,Ratio IC50,[1],41.9
same,IC50,Cholinesterase,3.81 µM
COc1cc2c(cc1OC)C(=O)C(Cc1cc[n+](Cc3cccc(Cl)c3)cc1C(C)=O)C2 (racemic),IC50,Acetylcholinesterase [2],0.00327 µM
same,Ratio IC50,[1],1020
COc1cc2c(cc1OC)C(=O)C(Cc1cc[n+](Cc3cccc(C)c3)cc1C(C)=O)C2 (racemic),IC50,Acetylcholinesterase [2],0.014 µM
same,Ratio IC50,[1],427
same,IC50,Cholinesterase,5.99 µM
COC(=O)c1c[n+](Cc2ccccc2)ccc1CC1Cc2cc(OC)c(OC)cc2C1=O (racemic),IC50,Acetylcholinesterase [2],0.0256 µM
same,Ratio IC50,[1],119
same,IC50,Cholinesterase,3.06 µM
COc1ccc2c(c1)CC(CC1C=CN(Cc3ccccc3C)C=C1C(C)=O)C2=O (stereo not given),IC50,Acetylcholinesterase [2],> 1 µM
same,"Papp at 4 h, 100 µM",[3],14.8 ×10⁻⁶ cm/s
CNC(=O)c1c[n+](Cc2ccccc2C)ccc1CC1Cc2cc(OC)c(OC)cc2C1=O (racemic),IC50,Acetylcholinesterase [2],1 to 10 µM
COC(=O)c1cc2c(OC(=O)N(C)C)cccc2[n+](C)c1,IC50,Acetylcholinesterase [4],0.02 µM
COc1cc2c(cc1OC)C(=O)C(CC1C=CN(Cc3ccccc3C)C=C1C(N)=O)C2 (stereo not given),IC50,Acetylcholinesterase [2],> 1 µM
CC(=O)c1c[n+](Cc2ccccc2C)ccc1CC1Cc2cc(C)c(C)cc2C1=O (racemic),IC50,Acetylcholinesterase [2],0.0277 µM
same,Ratio IC50,[1],6.95
CNC(=O)c1c[n+](Cc2ccccc2)ccc1CC1Cc2cc(OC)c(OC)cc2C1=O (racemic),IC50,Acetylcholinesterase [2],> 1 µM
same,IC50,Cholinesterase,4.77 µM
COc1cc2c(cc1OC)C(=O)C(CC1CCN(Cc3ccccc3)CC1)C2 (stereo not given) [DONEPEZIL],Activity,[5],inactive
same,LD50 at 48 h,[6],22.5 mg/kg
COc1cc2c(cc1OC)C(=O)C(CC1C=CN(Cc3cccc(Cl)c3)C=C1C(N)=O)C2 (stereo not given),Activity,Mus musculus [7],Non-Toxic
same,Activity,Mus musculus [8],Non-Toxic
same,Drug metabolism,[9],1.6%
same,IC50,Acetylcholinesterase [2],> 1 µM
same,"Papp at 4 h, 100 µM",[3],25.6 ×10⁻⁶ cm/s
same,Drug metabolism,[10],28%
same,Drug metabolism,[11],77.9%
same,Drug metabolism,[12],2.9%
same,Drug metabolism,[13],39.6%
same,EC50,[5],90 µM
same,Activity,Salmonella typhimurium [14],Non-Toxic
same,Activity,Salmonella typhimurium [15],Non-Toxic
same,LD50 at 48 h,[6],> 50 mg/kg
same,Activity,Mus musculus [16],Non-Toxic
same,Activity,Mus musculus [17],Non-Toxic
same,Activity,Mus musculus [18],Non-Toxic
same,Activity,Mus musculus [19],Non-Toxic
same,Activity,Mus musculus [20],Non-Toxic
same,Activity,Mus musculus [21],Non-Toxic
same,Drug metabolism,Brain [22],Metabolite_Notdetected
same,Drug metabolism,Brain [23],Metabolite_Notdetected
same,Activity,Mus musculus [24],Non-Toxic
same,Activity,Mus musculus [25],Non-Toxic
same,Activity,Mus musculus [26],Non-Toxic
same,Drug metabolism,[27],Metabolite detected
CC(=O)c1c[n+](Cc2ccccc2C)ccc1CC1Cc2cc(Cl)ccc2C1=O (racemic),Ratio IC50,[1],13.9
COC(=O)c1c[n+](Cc2ccccc2C)ccc1CC1Cc2cc(OC)c(OC)cc2C1=O (racemic),IC50,Acetylcholinesterase [2],0.0058 µM
same,Ratio IC50,[1],309
same,IC50,Cholinesterase,1.79 µM
COc1cc2c(cc1OC)C(=O)C(Cc1cc[n+](Cc3ccccc3)cc1C#N)C2 (racemic),IC50,Acetylcholinesterase [2],0.00292 µM
COc1cc2c(cc1OC)C(=O)C(Cc1cc[n+](Cc3cccc(Cl)c3)cc1C(N)=O)C2.[Br-] (racemic),IC50,Acetylcholinesterase [2],0.041 µM
same,inhibition,Acetylcholinesterase [28],41%
same,"Papp at 4 h, 100 µM",[3],0.15 ×10⁻⁶ cm/s
same,inhibition,[29],25%
same,Activity,Salmonella typhimurium [14],Non-Toxic
same,Activity,Salmonella typhimurium [15],Non-Toxic
same,Activity,SH-SY5Y,Non-Toxic
same,LD50 at 48 h,[6],70 mg/kg
same,IC50,Cholinesterase,> 10 µM
CC(=O)C1=CN(Cc2ccccc2C)C=CC1CC1Cc2cc(C)ccc2C1=O (stereo not given),IC50,Acetylcholinesterase [2],> 1 µM
CCN(C)C(=O)Oc1cccc([C@H](C)N(C)C)c1 [RIVASTIGMINE],LD50 at 48 h,[6],6.2 mg/kg
COc1cc2c(cc1OC)C(=O)C(Cc1cc[n+](Cc3ccccc3Cl)cc1C(C)=O)C2 (racemic),IC50,Acetylcholinesterase [2],0.018 µM
same,Ratio IC50,[1],106
same,IC50,Cholinesterase,1.92 µM
COc1ccc2c(c1)CC(Cc1cc[n+](Cc3ccccc3C)cc1C(C)=O)C2=O.[Br-] (racemic),Ratio IC50,[1],133
same,"Papp at 4 h, 100 µM",[3],0.3 ×10⁻⁶ cm/s
CC(=O)C1=CN(Cc2ccccc2C)C=CC1CC1Cc2cc(Cl)ccc2C1=O (stereo not given),IC50,Acetylcholinesterase [2],> 1 µM
CC(=O)C1=CN(Cc2ccccc2C)C=CC1CC1Cc2cc3c(cc2C1=O)OCO3 (stereo not given),IC50,Acetylcholinesterase [2],> 1 µM
same,"Papp at 4 h, 100 µM",[3],14.3 ×10⁻⁶ cm/s
COc1cc2c(cc1OC)C(=O)C(Cc1cc[n+](Cc3ccccc3C)cc1C(N)=O)C2 (racemic),IC50,Acetylcholinesterase [2],0.678 µM
same,IC50,Cholinesterase,> 10 µM
COC(=O)C1=CN(C)c2cccc(OC(=O)N(C)C)c2C1,IC50,Acetylcholinesterase [4],> 1000 µM
